Measured values: patent publication US20130202686A1 (priority 2010, published 2013)
Structures can show the parent of a compound that is named as a salt.

Columns and labels:
[1] = rat, in vivo, sc, 5 mg/kg, 4 h
Procedure: For the bupivacaine hydrochloride liposome prepared in Preparation Example 12 and bupivacaine hydrochloride used alone, a drug dynamics test was conducted. Subcutaneous administration into a back part of a rat was conducted in a dose, in terms of the amount of bupivacaine hydrochloride, as set forth in Table 7. After lapses of 1, 24, 72, 120, and 168 hours from the administration of the bupivacaine hydrochloride liposome composition, and after lapses of 0.5, 4, and 24 hours from the administration of the bupivacaine hydrochloride used alone, back region subcutaneous tissue in the administration site was sampled and subjected to a homogenizing treatment. Subsequently, the homogenized solution was treated, the resultant sample solution was subjected to high performance liquid chromatography determination (UV-visible absorptiometer; measurement wavelength 210 nm), and the concentration of bupivacaine hydrochloride remaining in the back region subcutaneous tissue in the administration site was determined. The retention rate of bupivacaine hydrochloride (used alone) in the administration site was lowered to below 1% in four hours after the administration. […] On the other hand, the bupivacaine hydrochloride liposome gave a profile of sustained release from the administration site, and about 35% of bupivacaine hydrochloride remained on the seventh day from the administration.

[2] = Donepezil Liposome Drug Dynamics 2 (plasma concentration of donepezil hydrochloride); details: rat, SC 5 mg/kg
Procedure: (Em) of 385 nm was quantified by high performance liquid chromatography using a fluorophotometer.
Furthermore, for comparison, donepezil used alone was administered subcutaneously into a back part of a rat in a dose of 5 mg/kg. For the donepezil used alone, blood was sampled from a tail vein after lapses of 0.5, 1, 5, 10, 30, 120, 480, 1440, and 2880 minutes from the administration. For the liposome compositions, on the other hand, blood was sampled from a tail vein after lapses of 1, 3, 4, 8, 24, 48, 72, 96, 120, 144, 168, 192, 216, 264, 288, 312, and 336 hours from the administration.

| SMILES | retention rate of bupivacaine hydrochloride in the administration site [1] | concentration in blood after 48 hours [2] | time of maximum concentration in blood [2] |
| --- | --- | --- | --- |
| CCCCN1CCCCC1C(=O)Nc1c(C)cccc1C (stereo not drawn) [bupivacaine hydrochloride, Bupivacaine hydrochloride] | below 1% |  |  |
| COc1cc2c(cc1OC)C(=O)C(CC1CCN(Cc3ccccc3)CC1)C2 (stereo not drawn) [donepezil hydrochloride, Donepezil hydrochloride] |  | below the detection limit | 0.5 h |
